# In the supplement of paper PMC13380429:
# How the values were obtained:
# Conditions in all cases: 72 h
# Caco-2 [1] = test: cell viability relative to DMSO; higher = less toxic
# Calu-3 [2] = test: as above
# HepG2 [3] = test: as above
# U2OS [4] = test: as above
# Vero E6 [5] = test: as above
# Caco-2 [6] = test: relative viability EC50 (midpoint between 100% and the lowest measured viability); higher = less toxic
# Calu-3 [7] = test: as above
# HepG2 [8] = test: as above
# U2OS [9] = test: as above
# Vero E6 [10] = test: as above
# Caco-2 [11] = test: drug sensitivity score (DSS) for viability; higher = more toxic; extreme values may be limits of the assay
# Calu-3 [12] = test: as above
# HepG2 [13] = test: as above
# U2OS [14] = test: as above
# Vero E6 [15] = test: as above
Structure (SMILES),cell viability (Caco-2 [1]; 1 nM) [%],cell viability (Caco-2 [1]; 10 nM) [%],cell viability (Caco-2 [1]; 100 nM) [%],cell viability (Caco-2 [1]; 1000 nM) [%],cell viability (Caco-2 [1]; 10000 nM) [%],cell viability (Calu-3 [2]; 1 nM) [%],cell viability (Calu-3 [2]; 10 nM) [%],cell viability (Calu-3 [2]; 100 nM) [%],cell viability (Calu-3 [2]; 1000 nM) [%],cell viability (Calu-3 [2]; 10000 nM) [%],cell viability (HepG2 [3]; 1 nM) [%],cell viability (HepG2 [3]; 10 nM) [%],cell viability (HepG2 [3]; 100 nM) [%],cell viability (HepG2 [3]; 1000 nM) [%],cell viability (HepG2 [3]; 10000 nM) [%],cell viability (U2OS [4]; 1 nM) [%],cell viability (U2OS [4]; 10 nM) [%],cell viability (U2OS [4]; 100 nM) [%],cell viability (U2OS [4]; 1000 nM) [%],cell viability (U2OS [4]; 10000 nM) [%],cell viability (Vero E6 [5]; 1 nM) [%],cell viability (Vero E6 [5]; 10 nM) [%],cell viability (Vero E6 [5]; 100 nM) [%],cell viability (Vero E6 [5]; 1000 nM) [%],cell viability (Vero E6 [5]; 10000 nM) [%],relative viability EC50 (Caco-2 [6]) [µM],relative viability EC50 (Calu-3 [7]) [µM],relative viability EC50 (HepG2 [8]) [µM],relative viability EC50 (U2OS [9]) [µM],relative viability EC50 (Vero E6 [10]) [µM],drug sensitivity score (Caco-2 [11]),drug sensitivity score (Calu-3 [12]),drug sensitivity score (HepG2 [13]),drug sensitivity score (U2OS [14]),drug sensitivity score (Vero E6 [15])
O=C(O)c1ccc2c(c1)nc(Nc1cccc(Cl)c1)c1ccncc12 [CX-4945],98.7,95.2,92,95.6,97.7,111,103,111,101,83.2,106,109,92,102,77,102,101,101,88.4,84.8,101,98.4,101,95.1,86.5,> 10,> 10,> 10,> 10,> 10,0,0.3,0.7,1.1,0.4
O=C(O)CNC(=O)c1nc(Cl)c2ccccc2c1O [FG-2216],98.2,102,99.3,94.1,93.5,106,98.5,96.6,103,103,101,98,96.4,99.1,95.3,107,98,101,91.5,93.2,100,99.4,104,102,99.5,> 10,> 10,> 10,> 10,> 10,0,0,0,0,0
O=C(NCCO)c1cccc(-c2cc(Nc3ccc(OC(F)(F)F)cc3)ncn2)c1 [GNF-5],94.1,92.7,95.3,107,78.5,102,99.4,89.8,107,94,99.5,95.2,98.2,98.1,89.4,95.7,101,98.5,106,98.5,91.5,97.4,94.6,105,102,> 10,> 10,> 10,> 10,> 10,0.4,0,0,0,0
Cc1ccc(Nc2ncc3c(n2)N(C)C(=O)N(c2cc(NC(=O)c4cccc(C(F)(F)F)c4)ccc2C)C3)cn1 [GNF-7],93.8,92.1,89.3,19.3,18.7,112,103,87.5,20.8,23.7,92.5,101,97.7,16.8,0.3,105,97.5,78.8,13.9,32.9,95.2,103,91,12,11.3,0.21,0.195,0.501,0.156,0.235,16.6,16.6,15.4,19,17.5
O=C(O)CCNc1cc(N2CCc3ccccc3CC2)nc(-c2ccccn2)n1 [GSK-J1],91.6,92.4,100,99.7,104,97.5,93.3,97.9,104,111,109,89.9,113,101,91.3,90.4,100,91.9,98.6,102,102,94.8,96.2,95.2,102,> 10,> 10,> 10,> 10,> 10,0,0,0,0,0
CCOC(=O)c1c(/C(C#N)=C\N)c2ccc(Cl)c(Cl)c2n1C [KH-CB19],101,93.6,103,99.2,92.4,98.2,97.7,96.6,101,101,99.8,105,98.7,102,93.2,102,99.6,103,96.5,107,96.2,104,98.4,103,92,> 10,> 10,> 10,> 10,> 10,0,0,0,0,0
O=C(Cc1ccc(-c2ccc(OCCN3CCOCC3)cc2)cn1)NCc1ccccc1 [KX2-391],102,92.3,91.7,45.3,39.2,96.8,90.8,82.8,54.5,42,107,113,80.8,34.5,38.5,97.5,94.8,96.4,24.5,19.5,91.7,93.2,88.3,24.5,27.2,0.284,0.222,0.143,0.339,0.196,11.2,10.4,14.9,14.3,15.8
